Reference: US20220144847A1, “HETEROCYCLIC COMPOUND, PHARMACEUTICAL COMPOSITION COMPRISING SAME, PREPARATION METHOD THEREFOR, AND USE THEREOF” (Sichuan Kelun-Biotech Biopharmaceutical Co., Ltd., priority 2019, published 2022)
Like-named read-outs stand apart in the source and are kept apart here.

What was measured:
Assay type in all cases: biochemical
RET-V804M = RET-V804M (Homo sapiens, UniProt P07949, V804M); assay: RET inhibition experiment (HTRF KinEASE-TK kit), mutant RET-V804M; conditions: read-out: Inhibition rate on RET-V804M
How it was run: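 Enzyme was pre-incubated with compound at room temperature for 30 min, then substrate and ATP were added for a 40 min reaction. HTRF signal was read after 45 min with TK antibody-cryptate and streptavidin-XL665. IC50 came from a four-parameter fit of percent inhibition against DMSO and no-enzyme controls.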

RET-M918T = RET-M918T (Homo sapiens, UniProt P07949, M918T); assay: RET inhibition experiment (HTRF KinEASE-TK kit), mutant RET-M918T; conditions: for inhibition at 0.1 µM: read-out: Inhibition rate on RET-M918T
Protocol: (§1) Experimental method: […] After incubation at room temperature for 40 min, TK antibody-cryptate and streptavidin-XL665 were added, and the test was performed after incubation at room temperature for 45 min. With the solvent group (DMSO) as the negative control and the buffer group (without RET enzyme) as the blank control, the relative inhibitory activity percentages (i.e., inhibition rates) of different concentrations of the compounds were computed as per the following formula: […] The relative inhibitory activity percentages of different concentrations of the compounds were plotted with respect to the compound concentrations, and the curve was fitted according to a four-parameter model to compute the IC50 value as per the following formula: y=min+(max-min)/(1+(x/IC50)^(-Hillslope)) where y is the relative inhibitory activity percentage, max is the maximum value of the fitted curve, min is the minimum value of the fitted curve, x is the logarithmic concentration of the compound, and Hillslope is the slope of the curve.

VEGFR2 = VEGFR2 (Homo sapiens, UniProt P35968); assay: VEGFR2 inhibition experiment (HTRF KinEASE-TK kit); conditions: read-out: Inhibition rate on VEGFR2
How it was run: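 HTRF KinEASE-TK format: enzyme and compound were preincubated 30 min at room temperature, then substrate and ATP added for 40 min, followed by cryptate antibody/streptavidin-XL665 detection for 45 min. Inhibition was normalised to DMSO and no-enzyme controls; IC50 from a four-parameter fit.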

RET-CCDC6 = target: T1, RET-CCDC6 (Homo sapiens, UniProt P07949); assay: RET inhibition experiment (HTRF KinEASE-TK kit), fusion-type RET enzyme; conditions: read-out: The IC50 (nM) for inhibiting RET-CCDC6
T1 construct: CCDC6 fusion partner (Q16204 for human); the other entry of the earlier key: CCDC6 (Q16204, Coiled-coil domain-containing protein 6)
T1 sequence (P07949 with tags, fused parts or gaps): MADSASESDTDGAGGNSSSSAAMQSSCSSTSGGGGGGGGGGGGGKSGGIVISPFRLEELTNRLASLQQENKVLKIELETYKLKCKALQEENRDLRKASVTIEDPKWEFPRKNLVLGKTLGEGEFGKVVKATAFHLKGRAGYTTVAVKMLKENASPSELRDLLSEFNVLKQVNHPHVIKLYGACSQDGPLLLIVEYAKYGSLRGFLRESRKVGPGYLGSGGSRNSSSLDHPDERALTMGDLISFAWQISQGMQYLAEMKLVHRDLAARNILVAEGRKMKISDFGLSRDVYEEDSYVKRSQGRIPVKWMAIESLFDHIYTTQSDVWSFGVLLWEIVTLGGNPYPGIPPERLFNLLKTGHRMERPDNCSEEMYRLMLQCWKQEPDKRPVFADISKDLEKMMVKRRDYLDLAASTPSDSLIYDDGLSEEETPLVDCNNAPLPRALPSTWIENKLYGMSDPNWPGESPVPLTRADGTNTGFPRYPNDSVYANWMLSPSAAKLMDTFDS
Protocol: as §1

[1] = compound concentration 100 nM (Table 1)

Chain of VEGFR2 (P35968 20-1356, species assumed): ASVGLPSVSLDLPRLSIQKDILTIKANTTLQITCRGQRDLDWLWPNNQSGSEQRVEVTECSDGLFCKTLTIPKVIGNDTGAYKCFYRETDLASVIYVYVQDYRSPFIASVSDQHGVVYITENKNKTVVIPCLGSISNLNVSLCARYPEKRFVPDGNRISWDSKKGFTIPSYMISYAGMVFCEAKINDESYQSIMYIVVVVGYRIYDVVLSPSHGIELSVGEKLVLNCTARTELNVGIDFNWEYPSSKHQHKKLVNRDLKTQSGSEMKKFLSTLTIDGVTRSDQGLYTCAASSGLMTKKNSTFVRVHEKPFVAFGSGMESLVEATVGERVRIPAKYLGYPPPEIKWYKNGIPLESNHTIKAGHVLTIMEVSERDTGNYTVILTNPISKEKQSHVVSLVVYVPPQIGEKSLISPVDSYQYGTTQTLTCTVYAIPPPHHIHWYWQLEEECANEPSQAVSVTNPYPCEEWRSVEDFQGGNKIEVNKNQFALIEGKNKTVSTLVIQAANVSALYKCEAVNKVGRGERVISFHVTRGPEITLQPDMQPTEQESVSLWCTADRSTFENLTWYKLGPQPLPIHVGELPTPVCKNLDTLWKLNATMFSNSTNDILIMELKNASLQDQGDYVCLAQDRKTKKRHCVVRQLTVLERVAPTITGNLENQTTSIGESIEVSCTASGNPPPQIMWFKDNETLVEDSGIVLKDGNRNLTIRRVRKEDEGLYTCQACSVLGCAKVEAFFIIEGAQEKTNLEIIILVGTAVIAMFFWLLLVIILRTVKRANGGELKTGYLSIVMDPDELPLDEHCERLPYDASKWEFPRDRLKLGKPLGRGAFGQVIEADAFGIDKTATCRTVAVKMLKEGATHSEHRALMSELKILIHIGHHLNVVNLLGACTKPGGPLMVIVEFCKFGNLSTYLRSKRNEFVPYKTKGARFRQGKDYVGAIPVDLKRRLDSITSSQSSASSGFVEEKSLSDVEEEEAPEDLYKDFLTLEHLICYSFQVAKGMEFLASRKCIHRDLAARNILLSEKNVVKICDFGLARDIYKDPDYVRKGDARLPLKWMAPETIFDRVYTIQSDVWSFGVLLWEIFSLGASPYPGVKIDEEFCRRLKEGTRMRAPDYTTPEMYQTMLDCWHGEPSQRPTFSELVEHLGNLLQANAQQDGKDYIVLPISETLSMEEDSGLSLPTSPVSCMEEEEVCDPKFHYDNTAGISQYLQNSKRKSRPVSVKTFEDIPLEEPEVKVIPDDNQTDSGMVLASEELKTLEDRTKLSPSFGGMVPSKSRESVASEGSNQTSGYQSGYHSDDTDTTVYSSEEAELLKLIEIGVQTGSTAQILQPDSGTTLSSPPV
Chain of RET-M918T (P07949 29-1114 M918T): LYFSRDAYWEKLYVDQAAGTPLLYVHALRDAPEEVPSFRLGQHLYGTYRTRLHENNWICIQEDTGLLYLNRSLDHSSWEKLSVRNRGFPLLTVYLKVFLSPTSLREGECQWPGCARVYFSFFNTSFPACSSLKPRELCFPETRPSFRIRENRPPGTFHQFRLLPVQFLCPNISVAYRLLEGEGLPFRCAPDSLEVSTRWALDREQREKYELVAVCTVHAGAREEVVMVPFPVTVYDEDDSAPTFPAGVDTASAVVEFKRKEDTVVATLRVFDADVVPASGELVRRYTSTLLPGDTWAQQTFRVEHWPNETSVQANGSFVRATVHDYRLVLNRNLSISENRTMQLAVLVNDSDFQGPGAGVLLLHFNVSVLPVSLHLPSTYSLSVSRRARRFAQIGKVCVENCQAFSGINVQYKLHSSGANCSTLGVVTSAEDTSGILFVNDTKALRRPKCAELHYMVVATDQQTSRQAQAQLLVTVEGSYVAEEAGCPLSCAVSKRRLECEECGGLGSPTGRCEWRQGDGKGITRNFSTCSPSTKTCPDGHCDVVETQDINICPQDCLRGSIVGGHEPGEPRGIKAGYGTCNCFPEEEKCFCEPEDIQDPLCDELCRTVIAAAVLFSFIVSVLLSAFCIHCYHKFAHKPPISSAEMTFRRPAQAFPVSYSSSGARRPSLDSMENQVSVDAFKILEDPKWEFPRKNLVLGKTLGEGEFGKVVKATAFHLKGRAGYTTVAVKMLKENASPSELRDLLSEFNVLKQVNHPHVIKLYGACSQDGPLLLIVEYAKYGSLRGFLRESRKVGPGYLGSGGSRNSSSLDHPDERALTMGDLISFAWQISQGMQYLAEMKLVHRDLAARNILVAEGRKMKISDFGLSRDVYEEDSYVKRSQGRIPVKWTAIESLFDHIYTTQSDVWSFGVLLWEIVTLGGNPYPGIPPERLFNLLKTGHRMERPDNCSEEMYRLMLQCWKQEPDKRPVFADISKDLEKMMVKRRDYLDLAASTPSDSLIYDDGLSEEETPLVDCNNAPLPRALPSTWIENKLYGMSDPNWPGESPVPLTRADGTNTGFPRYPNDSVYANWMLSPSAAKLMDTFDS
Chain of RET-V804M (P07949 29-1114 V804M): as the sequence (P07949 29-1114 M918T) above, with V776M, T890M counted along it

Row | Compound | inhibition at 0.1 µM (RET-V804M) | inhibition at 0.1 µM (RET-M918T) | inhibition at 0.1 µM (VEGFR2) | inhibition at 0.1 µM (RET-M918T; [1]) | inhibition at 0.1 µM (VEGFR2; 100 nM) | also measured
1 | Cc1cc(Nc2cc(C)[nH]n2)nc(-c2ccc(N3CC4CC(C3)N4Cc3ccccc3)nc2)n1 [Compound 1, 2-(6-(6-benzyl-3,6-diazabicyclo[3.1.1]heptan-3-yl)pyridin-3-yl)-6-methyl-N-(5-methyl-1H-pyrazol-3-yl)pyrimidin-4-amine] | 86% | 33% | 38% |  |  | 
2 | Cc1cc(Nc2cc(C)[nH]n2)nc(-c2ccc(N3CC4CC(C3)N4Cc3ccc(Cl)nc3)nc2)n1 [Compound 3, 2-(6-(6-((6-chloropyridin-3-yl)methyl)-3,6-diazabicyclo[3.1.1]heptan-3-yl)pyridin-3-yl)-6-methyl-N-(5-methyl-1H-pyrazol-3-yl)pyrimidin-4-amine] |  |  |  | 34% | 14% | inhibition at 0.1 µM (RET-V804M; [1]): 86%
3 | Cc1cc(Nc2cc(C)[nH]n2)nc(-c2ccc(N3CC4CC(C3)N4Cc3ccc(Cl)cn3)nc2)n1 [Compound 69, 2-(6-(6-((5-chloropyridin-2-yl)methyl)-3,6-diazabicyclo[3.1.1]heptan-3-yl)pyridin-3-yl)-6-methyl-N-(5-methyl-1H-pyrazol-3-yl)pyrimidin-4-amine] |  |  |  |  | 2% | inhibition at 0.01 µM (RET-V804M; 10 nM (Table 2)): 56%; IC50 (RET-M918T; read-out: The IC50 (nM) for inhibiting the enzyme RET-M918T): 8.6 ± 1.46 nM; IC50 (RET-CCDC6): 11 ± 9.65 nM
4 | COc1ccc(CN2C3CC2CN(c2ccc(-c4nc(C)cc(Nc5cc(C)[nH]n5)n4)cn2)C3)cc1 [Compound 2, 2-(6-(6-(4-methoxybenzyl)-3,6-diazabicyclo[3.1.1]heptan-3-yl)pyridin-3-yl)-6-methyl-N-(5-methyl-1H-pyrazol-3-yl)pyrimidin-4-amine] | 93% | 51% | 29% |  |  | 
5 | COc1ccc(CN2C3CC2CN(c2ccc(-c4nc(C)cc(Nc5cc(C)[nH]n5)n4)cn2)C3)cn1 [Compound 4, 2-(6-(6-((6-methoxypyridin-3-yl)methyl)-3,6-diazabicyclo[3.1.1]heptan-3-yl)pyridin-3-yl)-6-methyl-N-(5-methyl-1H-pyrazol-3-yl)pyrimidin-4-amine] |  |  |  | 69% |  | inhibition at 1 µM (VEGFR2; 1000 nM): 52%
